Activity calls are given as the source filed them.
Legend:
Bcl-2-like protein 10 = biological target: T1, Bcl-2-like protein 10 (Homo sapiens, UniProt Q9HD36); experiment: Bcl-B/TR3 peptide binding disruption – biochemical, fluorescence polarization, FITC-TR3 peptide, selectivity assay for Bfl-1 inhibitor project, primary screen (AID 748);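 note: fluorescence polarization from a fluorescein-labelled TR3 peptide binding purified Bcl-B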
T1 sequence (Q9HD36 whole entry): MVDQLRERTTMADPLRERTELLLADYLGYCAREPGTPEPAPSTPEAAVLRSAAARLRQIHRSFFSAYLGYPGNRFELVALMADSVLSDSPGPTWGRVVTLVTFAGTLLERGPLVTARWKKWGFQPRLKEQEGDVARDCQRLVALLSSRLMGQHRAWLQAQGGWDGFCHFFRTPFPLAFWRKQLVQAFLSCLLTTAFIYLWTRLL

[1] = biological target: Protein-tyrosine kinase 2-beta (Homo sapiens, UniProt Q14289);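 note: potency of inhibitors of PYK2 kinase phosphorylation of poly-GT substrate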
[2] = biological target: Eukaryotic translation initiation factor 4E (Mus musculus, UniProt P63073); experiment: blockers of eIF4G binding by eIF4E – biochemical, TR-FRET, dose response (AID 855); assay type: functional;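 note: potency for disrupting eIF4E binding to eIF4GI seen as loss of FRET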
Estrogen receptor = biological target: T2, Estrogen receptor (Homo sapiens, UniProt P03372); experiment: ERα coactivator recruitment enhancers – biochemical, TR-FRET, ERα LBD, dose response (AID 737)
T2 sequence (P03372 whole entry): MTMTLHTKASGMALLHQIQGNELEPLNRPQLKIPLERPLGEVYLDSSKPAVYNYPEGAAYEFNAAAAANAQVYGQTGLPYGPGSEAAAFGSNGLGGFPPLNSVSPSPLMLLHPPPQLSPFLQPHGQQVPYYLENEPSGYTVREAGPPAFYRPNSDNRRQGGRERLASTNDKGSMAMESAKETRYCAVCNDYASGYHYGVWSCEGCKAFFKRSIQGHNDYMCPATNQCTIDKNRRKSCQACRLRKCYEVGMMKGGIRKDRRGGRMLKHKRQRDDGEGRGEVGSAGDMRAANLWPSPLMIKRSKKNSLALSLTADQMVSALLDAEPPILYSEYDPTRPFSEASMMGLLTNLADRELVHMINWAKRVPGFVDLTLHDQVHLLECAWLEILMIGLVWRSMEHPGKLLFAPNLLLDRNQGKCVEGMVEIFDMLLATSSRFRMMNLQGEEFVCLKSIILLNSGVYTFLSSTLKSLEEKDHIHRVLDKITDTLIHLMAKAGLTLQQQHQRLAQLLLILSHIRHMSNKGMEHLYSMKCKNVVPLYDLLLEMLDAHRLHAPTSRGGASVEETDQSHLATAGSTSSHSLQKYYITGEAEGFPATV

[3] = Luminescence Cell-Based Dose Response to Identify Activators of 5'UTR Stem-Loop Driven Prion Protein mRNA Translation in H4-C Neuroglioblastoma Cells. [Related pubchem assays: 1829 (Project Summary), 1814 (Primary HTS)]; assay type: functional
[4] = Luminescence Cell-Based Dose Response HTS to Identify Activators of Luciferase Translation or Activity in H4 […] Cells. [Related pubchem assays: 1829 (Project Summary), 1814 (Primary HTS)]; assay type: functional
H4 = experiment: Luminescence Cell-Based Dose Response HTS to Identify Activators of 5'UTR Stem-Loop Driven Prion Protein mRNA Translation in H4 Neuroglioblastoma Cells. [Related pubchem assays: 1829 (Project Summary), 1814 (Primary HTS)]; assay type: functional; conditions: Homo sapiens
[5] = Luminescence Cell-Based Dose Response to Identify Activators of Luciferase Translation or Activity in H4-C Neuroglioblastoma Cells. [Related pubchem assays: 1829 (Project Summary), 1814 (Primary HTS)]; assay type: functional
[6] = Luminescence Cell-Based Dose Confirmation to Identify Activators of 5'UTR Stem-Loop Driven Alpha-Synuclein mRNA Translation in H4 Neuroglioblastoma Cells. [Related pubchem assays: 1829 (Project Summary), 1814 (Primary HTS)]; assay type: functional
Aspartyl aminopeptidase = Aspartyl aminopeptidase (Plasmodium falciparum 3D7, UniProt Q8I2J3); experiment: Counterscreen for inhibitors of M1 and M17 aminopeptidases: QFRET-based biochemical high throughput dose response assay for inhibitors of the Plasmodium falciparum M18 Aspartyl Aminopeptidase (PFM18AAP). [Related PubChem assays: 1619 (Screening assay (M17LAP inhibitors).), 1445 (Screening assay (M1AAP inhibitors).)]
Aminopeptidase N = biological target: T3, Aminopeptidase N (Plasmodium falciparum FcB1/Columbia, UniProt O96935); experiment: malaria alanyl aminopeptidase activity blockers – biochemical, fluorogenic H-Leu-NHMec substrate, 1536-well (AID 1445); design: species or system Plasmodium falciparum 3D7, 3D7
T3 sequence (O96935 whole entry): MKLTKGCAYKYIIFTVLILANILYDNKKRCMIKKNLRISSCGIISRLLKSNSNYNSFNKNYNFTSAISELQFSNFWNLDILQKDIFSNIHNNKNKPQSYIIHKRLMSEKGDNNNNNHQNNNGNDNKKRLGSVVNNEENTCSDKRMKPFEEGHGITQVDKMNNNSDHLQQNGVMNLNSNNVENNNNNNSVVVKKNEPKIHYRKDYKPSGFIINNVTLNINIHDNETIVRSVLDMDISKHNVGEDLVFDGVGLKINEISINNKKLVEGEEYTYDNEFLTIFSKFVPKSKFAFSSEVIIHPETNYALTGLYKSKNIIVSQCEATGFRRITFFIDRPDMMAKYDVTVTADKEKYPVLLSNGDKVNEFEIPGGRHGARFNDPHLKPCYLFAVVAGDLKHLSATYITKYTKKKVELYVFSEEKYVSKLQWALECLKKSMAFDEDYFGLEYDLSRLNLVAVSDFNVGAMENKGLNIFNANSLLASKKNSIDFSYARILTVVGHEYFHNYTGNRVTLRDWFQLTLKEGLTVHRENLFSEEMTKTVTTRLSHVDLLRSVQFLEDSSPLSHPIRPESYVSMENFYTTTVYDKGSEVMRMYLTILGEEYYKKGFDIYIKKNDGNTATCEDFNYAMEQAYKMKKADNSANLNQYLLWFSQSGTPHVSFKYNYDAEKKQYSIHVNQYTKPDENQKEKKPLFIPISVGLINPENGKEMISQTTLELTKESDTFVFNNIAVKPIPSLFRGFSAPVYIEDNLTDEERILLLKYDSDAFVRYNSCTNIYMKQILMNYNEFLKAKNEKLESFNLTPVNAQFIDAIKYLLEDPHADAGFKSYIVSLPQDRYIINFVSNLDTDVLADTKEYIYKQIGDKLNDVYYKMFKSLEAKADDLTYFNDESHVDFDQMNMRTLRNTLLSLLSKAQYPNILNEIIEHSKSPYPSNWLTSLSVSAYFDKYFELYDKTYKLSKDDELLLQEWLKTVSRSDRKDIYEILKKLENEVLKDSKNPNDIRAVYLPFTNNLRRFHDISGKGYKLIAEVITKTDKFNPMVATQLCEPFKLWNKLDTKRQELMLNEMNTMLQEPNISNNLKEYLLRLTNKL

Procathepsin L = Procathepsin L (Homo sapiens, UniProt P07711); experiment: CTSL1 protease inhibition – biochemical, QFRET, 1536-well, counter-screen for M1/M17 aminopeptidase inhibitor project, dose response (AID 2214)
[7] = Luminescence Cell-Based Dose Confirmation HTS to Identify Activators of 5'UTR Stem-Loop Driven Alpha-Synuclein mRNA Translation in H4 Neuroglioblastoma Cells. [Related pubchem assays: 1829 (Project Summary), 1814 (Primary HTS)]; assay type: functional
[8] = biological target: Mitogen-activated protein kinase 10 (Homo sapiens, UniProt P53779); experiment: Dose response biochemical screening assay for inhibitors of c-Jun N-Terminal Kinase 3 (JNK3). [Related pubchem assays: 746 ]
[9] = biological target: Heat shock protein HSP 90-alpha (Homo sapiens, UniProt P07900); experiment: Luminescence-based dose response biochemical high throughput screening assay for inhibitors of the Heat Shock Protein 90 (HSP90). [Related pubchem assays: 1831 (Summary AID.), 1846 (Confirmation screen.), 1789 (Primary screen.)]
[10] = biological target: T4, Polyadenylate-binding protein 1 (Homo sapiens, UniProt P11940); experiment: MLLE binding blockers, Cy5 peptide tracer – biochemical, fluorescence polarization, Cy5-PAM2 peptide, secondary, miRNA deadenylation inhibitor project, dose response (AID 602260); assay type: functional; conditions: read-out: IC50_Mean
[11] = biological target: T4, Polyadenylate-binding protein 1; experiment: MLLE domain peptide-binding blockers, IC50 – biochemical, fluorescence polarization, FITC-PAM2 peptide, dose response (AID 602259); assay type: functional; conditions: read-out: IC50_Mean
Cytochrome P450 2C9 = Cytochrome P450 2C9 (Homo sapiens, UniProt P11712)
Chain of Cytochrome P450 2C9 (P11712 whole entry): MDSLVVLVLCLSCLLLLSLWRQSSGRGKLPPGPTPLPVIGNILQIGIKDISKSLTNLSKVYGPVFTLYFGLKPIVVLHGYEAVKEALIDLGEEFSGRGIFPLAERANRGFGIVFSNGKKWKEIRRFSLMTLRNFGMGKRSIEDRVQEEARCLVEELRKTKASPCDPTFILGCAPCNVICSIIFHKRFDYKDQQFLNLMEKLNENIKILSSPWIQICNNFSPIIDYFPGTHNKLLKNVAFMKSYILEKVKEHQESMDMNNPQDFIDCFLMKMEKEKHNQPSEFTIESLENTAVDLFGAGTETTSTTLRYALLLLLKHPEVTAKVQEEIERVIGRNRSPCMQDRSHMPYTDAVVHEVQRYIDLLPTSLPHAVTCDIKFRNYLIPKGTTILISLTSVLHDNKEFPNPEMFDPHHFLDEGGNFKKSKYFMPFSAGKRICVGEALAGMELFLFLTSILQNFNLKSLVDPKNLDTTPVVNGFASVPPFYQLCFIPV

Chain of Protein-tyrosine kinase 2-beta (Q14289 whole entry): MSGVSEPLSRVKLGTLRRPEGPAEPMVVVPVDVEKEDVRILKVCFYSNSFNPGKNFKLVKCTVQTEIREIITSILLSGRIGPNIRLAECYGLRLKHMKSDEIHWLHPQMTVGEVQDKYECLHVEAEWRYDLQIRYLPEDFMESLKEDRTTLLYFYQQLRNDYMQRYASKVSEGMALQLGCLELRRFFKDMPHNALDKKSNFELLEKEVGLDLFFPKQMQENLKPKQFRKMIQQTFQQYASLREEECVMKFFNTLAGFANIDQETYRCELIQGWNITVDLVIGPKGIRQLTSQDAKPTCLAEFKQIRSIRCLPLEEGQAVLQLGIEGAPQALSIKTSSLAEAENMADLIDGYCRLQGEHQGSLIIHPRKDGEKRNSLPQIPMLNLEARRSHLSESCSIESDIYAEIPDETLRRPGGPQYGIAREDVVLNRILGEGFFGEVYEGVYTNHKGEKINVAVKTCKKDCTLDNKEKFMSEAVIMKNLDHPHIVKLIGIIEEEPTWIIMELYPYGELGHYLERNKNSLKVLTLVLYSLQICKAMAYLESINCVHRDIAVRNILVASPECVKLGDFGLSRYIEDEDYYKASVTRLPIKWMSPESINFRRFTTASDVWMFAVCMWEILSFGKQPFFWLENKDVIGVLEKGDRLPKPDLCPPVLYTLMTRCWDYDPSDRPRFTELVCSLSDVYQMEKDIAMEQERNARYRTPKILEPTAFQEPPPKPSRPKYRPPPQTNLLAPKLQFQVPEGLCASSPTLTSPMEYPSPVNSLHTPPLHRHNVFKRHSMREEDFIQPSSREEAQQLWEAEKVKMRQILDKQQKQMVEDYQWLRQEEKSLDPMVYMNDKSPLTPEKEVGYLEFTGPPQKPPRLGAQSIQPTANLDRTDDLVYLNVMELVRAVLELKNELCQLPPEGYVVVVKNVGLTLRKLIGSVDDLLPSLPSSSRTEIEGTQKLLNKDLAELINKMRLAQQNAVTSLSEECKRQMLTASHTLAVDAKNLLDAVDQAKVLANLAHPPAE
T4 sequence (P11940 whole entry, the tested form may be a part): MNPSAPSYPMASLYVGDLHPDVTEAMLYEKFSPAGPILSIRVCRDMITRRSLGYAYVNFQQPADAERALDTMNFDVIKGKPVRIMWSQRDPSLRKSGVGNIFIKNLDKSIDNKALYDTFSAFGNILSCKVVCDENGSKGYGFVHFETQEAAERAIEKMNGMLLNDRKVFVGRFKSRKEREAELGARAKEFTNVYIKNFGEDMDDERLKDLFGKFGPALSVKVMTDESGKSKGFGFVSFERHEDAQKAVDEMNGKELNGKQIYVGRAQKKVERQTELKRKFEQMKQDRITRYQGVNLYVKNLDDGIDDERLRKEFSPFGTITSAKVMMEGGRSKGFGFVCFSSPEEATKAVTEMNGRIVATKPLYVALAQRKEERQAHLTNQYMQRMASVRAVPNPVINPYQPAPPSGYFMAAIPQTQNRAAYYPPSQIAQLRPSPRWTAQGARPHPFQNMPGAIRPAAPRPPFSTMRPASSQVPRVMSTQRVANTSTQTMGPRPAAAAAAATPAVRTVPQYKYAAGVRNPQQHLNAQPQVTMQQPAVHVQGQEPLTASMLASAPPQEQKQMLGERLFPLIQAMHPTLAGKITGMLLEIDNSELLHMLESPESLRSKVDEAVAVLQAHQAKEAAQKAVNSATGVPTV
Chain of Eukaryotic translation initiation factor 4E (P63073 whole entry, the tested form may be a part): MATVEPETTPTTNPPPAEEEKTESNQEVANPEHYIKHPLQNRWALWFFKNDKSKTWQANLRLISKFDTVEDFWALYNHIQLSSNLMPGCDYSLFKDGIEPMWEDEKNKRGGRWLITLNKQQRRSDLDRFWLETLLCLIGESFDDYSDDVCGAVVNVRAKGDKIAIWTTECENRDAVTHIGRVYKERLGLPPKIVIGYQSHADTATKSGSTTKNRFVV
Chain of Aspartyl aminopeptidase (Q8I2J3 whole entry): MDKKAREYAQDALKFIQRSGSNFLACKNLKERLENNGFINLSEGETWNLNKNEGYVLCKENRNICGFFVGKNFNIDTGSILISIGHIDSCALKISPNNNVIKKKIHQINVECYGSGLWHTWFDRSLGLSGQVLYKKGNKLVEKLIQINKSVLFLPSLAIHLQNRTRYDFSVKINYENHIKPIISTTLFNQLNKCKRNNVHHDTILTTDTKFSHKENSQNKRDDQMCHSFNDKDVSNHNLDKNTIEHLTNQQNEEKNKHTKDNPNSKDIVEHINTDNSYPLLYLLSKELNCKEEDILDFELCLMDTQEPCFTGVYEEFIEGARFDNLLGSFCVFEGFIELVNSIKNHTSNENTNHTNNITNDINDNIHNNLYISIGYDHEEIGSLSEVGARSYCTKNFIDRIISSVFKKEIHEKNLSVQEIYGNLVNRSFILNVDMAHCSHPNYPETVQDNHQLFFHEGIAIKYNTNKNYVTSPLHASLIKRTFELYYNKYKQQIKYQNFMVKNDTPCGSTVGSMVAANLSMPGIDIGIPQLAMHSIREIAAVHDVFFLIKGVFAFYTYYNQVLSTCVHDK
Chain of Mitogen-activated protein kinase 10 (P53779 whole entry): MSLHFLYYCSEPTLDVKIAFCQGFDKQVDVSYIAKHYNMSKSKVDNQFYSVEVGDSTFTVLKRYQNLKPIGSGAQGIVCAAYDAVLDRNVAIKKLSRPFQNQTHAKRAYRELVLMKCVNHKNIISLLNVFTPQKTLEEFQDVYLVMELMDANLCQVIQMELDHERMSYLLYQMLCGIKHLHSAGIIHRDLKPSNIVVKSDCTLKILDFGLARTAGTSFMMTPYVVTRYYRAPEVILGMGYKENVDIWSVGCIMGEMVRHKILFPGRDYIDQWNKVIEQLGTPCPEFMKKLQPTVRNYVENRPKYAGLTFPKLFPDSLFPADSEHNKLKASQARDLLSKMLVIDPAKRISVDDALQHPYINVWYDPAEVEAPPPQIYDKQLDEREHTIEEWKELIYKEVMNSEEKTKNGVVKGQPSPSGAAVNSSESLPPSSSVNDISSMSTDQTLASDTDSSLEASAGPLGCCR
Chain of Procathepsin L (P07711 whole entry): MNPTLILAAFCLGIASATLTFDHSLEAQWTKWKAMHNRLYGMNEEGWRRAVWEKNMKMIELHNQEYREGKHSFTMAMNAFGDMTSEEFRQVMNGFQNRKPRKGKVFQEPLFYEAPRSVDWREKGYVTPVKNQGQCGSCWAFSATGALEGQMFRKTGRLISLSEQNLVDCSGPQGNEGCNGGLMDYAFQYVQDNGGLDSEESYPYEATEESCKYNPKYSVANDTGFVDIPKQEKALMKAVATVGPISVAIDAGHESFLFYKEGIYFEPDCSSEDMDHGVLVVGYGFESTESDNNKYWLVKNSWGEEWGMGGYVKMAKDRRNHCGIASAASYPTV

## Cc1cc(N)ccc1N1CCCC1
Bcl-2-like protein 10
  IC50: 0.963 µM (active)
[1]
  IC50: 1.82 µM (active)
[2]
  IC50: 33.1 µM (inactive)

## COc1ccccc1-n1c(SCC(=O)NC2CCCCC2)nc2c(c1=O)SCC2
Estrogen receptor
  EC50: 6.62 µM (not active)

## CC(C)(C)c1ccc(OC(=O)N2CCCCC2)cc1
[3]
  EC50: 1.01 µM (active)
[4]
  EC50: < 0.1 µM (active)
H4
  EC50: 44.5 µM (active)
[5]
  EC50: 0.364 µM (active)
[6]
  EC50: 1.13 µM (active)

## Cc1ccc(OC(=O)c2ccccc2P(=O)(O)O)cc1
[1]
  IC50: 9.74 µM (active)

## O=C(O)CCC(=O)N1N=C(c2c(-c3ccccc3)c3cc(Cl)ccc3[nH]c2=O)CC1c1ccco1 (centres undefined)
Aspartyl aminopeptidase
  IC50: > 73.5 µM (not active)
Aminopeptidase N
  IC50: 13 µM (active)
Procathepsin L
  IC50: > 59.6 µM (not active)

## Cn1cc(Br)c(C(=O)Nc2sc3c(c2C(N)=O)CCCC3)n1
[3]
  EC50: > 12 µM (not active)
[7]
  EC50: 13.3 µM (active)
[4]
  EC50: 13.6 µM (active)
H4
  EC50: 0.117 µM (active)
[5]
  EC50: > 12 µM (not active)
[6]
  EC50: > 12 µM (not active)

## COC(=O)c1cccc(Cn2nnc3ccccc3c2=O)c1
[8]
  IC50: 78.8 µM (not active)

## CCN(CC)c1ccc(SS(=O)(=O)O)cc1
[9]
  IC50: 4.53 µM (active)
[10]
  IC50: > 66 µM (inactive)
[11]
  IC50: > 66 µM (inactive)
Cytochrome P450 2C9
  AC50: 5.01 µM (inconclusive)

Source: ChEMBL document CHEMBL1201862, “PubChem BioAssay data set” (2004)
